Laboratory results published in ChEMBL document CHEMBL1255556, “6-Alkoxyisoindolin-1-one based dopamine D2 partial agonists as potential antipsychotics” (Bioorg Med Chem Lett, 2010).

Columns and labels:
[1] = target: 5-hydroxytryptamine receptor 2A (Homo sapiens, UniProt P28223); assay: Binding affinity to human 5HT2A receptor
[2] = target: T1, 5-hydroxytryptamine receptor 1A (Homo sapiens, UniProt P08908); assay: Binding affinity to human 5HT1A receptor expressed in HeLa cells by scintillation proximity assay; type: cell-based
T1 sequence (P08908 whole entry): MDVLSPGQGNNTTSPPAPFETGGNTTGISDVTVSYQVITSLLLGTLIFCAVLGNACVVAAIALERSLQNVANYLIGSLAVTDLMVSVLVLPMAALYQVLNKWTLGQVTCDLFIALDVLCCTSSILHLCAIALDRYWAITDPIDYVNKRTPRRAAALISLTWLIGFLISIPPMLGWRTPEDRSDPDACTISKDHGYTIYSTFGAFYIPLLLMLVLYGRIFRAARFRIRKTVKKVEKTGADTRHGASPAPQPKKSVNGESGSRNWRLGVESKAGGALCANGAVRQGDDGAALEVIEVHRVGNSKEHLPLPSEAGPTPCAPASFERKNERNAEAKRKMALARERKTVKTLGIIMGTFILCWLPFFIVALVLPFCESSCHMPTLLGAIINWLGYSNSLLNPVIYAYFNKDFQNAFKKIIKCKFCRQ

[3] = target: T2, 5-hydroxytryptamine receptor 1A (Homo sapiens) (UniProt P08908); assay: Intrinsic activity at human […] 5HT1A receptor expressed in HeLa cells by [3H]-thymidine uptake assay; type: cell-based
T2 sequence (whole entry): T1 sequence (P08908 whole entry)

[4] = tested on: Mus musculus; assay: In vivo intrinsic activity at D2 receptor in mouse brain assessed as inhibition of gamma-butyrolactone-induced increase in DOPA synthesis at 30 mg/kg, po administered 60 mins before gamma-butyrolactone challenge measured after 30 mins; type: functional
[5] = target: T3, Sodium-dependent serotonin transporter (Homo sapiens, UniProt P31645); assay: Displacement of [3H]-citalopram from human serotonin transporter expressed in HEK 293 cells; type: cell-based, HEK293
T3 sequence (P31645 whole entry): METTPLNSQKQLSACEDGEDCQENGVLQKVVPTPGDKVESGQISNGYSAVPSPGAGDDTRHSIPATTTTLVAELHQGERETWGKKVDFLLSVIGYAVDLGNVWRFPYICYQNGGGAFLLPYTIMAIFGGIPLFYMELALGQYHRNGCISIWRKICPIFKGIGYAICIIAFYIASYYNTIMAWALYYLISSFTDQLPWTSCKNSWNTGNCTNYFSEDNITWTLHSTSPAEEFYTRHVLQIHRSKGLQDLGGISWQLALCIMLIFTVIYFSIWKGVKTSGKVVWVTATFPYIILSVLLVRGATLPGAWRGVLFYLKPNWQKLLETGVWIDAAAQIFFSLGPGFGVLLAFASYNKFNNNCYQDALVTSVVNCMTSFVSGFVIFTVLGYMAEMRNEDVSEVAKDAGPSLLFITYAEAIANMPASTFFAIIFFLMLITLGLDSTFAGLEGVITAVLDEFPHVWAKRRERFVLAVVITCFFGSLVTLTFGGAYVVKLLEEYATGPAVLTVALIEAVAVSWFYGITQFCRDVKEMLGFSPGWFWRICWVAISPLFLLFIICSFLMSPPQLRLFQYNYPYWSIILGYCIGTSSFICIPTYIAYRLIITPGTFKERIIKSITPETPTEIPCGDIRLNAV

[6] = target: T3, Sodium-dependent serotonin transporter; assay: Displacement of [3H]-citalopram from human serotonin transporter expressed in HEK 293 cells by scintillation proximity assay; type: cell-based, HEK293
[7] = tested on: Mus musculus; assay: Antipsychotic activity in po dosed mouse assessed as inhibition of spontaneous locomotor activity; type: functional; settings: for minimal effective dose: read-out: MED
[8] = Apparent intrinsic clearance in human liver microsomes; type: ADME, Microsome
[9] = tested on: Rattus norvegicus; assay: Ex vivo D2 receptor occupancy in po dosed rat striatum assessed as inhibition [3H]-raclopride binding at 47 ng/ml plasma concentration; type: functional; set-up: scale not given: the % may be the effect or the level left
[10] = tested on: Rattus norvegicus; assay: Ex vivo D2 receptor occupancy in po dosed rat striatum assessed as inhibition [3H]-raclopride binding at 188 ng/ml plasma concentration; type: functional; set-up: scale not given: the % may be the effect or the level left
[11] = Ratio of drug level in brain to plasma in po dosed rat; type: ADME, organism-based; settings: read-out: BPR
[12] = tested on: Rattus norvegicus; assay: Ex vivo D2 receptor occupancy in rat striatum assessed as inhibition [3H]-raclopride binding at 1 mg/kg, po; type: functional; set-up: scale not given: the % may be the effect or the level left
[13] = target: Voltage-gated inwardly rectifying potassium channel KCNH2 (Homo sapiens, UniProt Q12809)
Voltage-gated inwardly rectifying potassium channel KCNH2, sequence (Q12809 whole entry): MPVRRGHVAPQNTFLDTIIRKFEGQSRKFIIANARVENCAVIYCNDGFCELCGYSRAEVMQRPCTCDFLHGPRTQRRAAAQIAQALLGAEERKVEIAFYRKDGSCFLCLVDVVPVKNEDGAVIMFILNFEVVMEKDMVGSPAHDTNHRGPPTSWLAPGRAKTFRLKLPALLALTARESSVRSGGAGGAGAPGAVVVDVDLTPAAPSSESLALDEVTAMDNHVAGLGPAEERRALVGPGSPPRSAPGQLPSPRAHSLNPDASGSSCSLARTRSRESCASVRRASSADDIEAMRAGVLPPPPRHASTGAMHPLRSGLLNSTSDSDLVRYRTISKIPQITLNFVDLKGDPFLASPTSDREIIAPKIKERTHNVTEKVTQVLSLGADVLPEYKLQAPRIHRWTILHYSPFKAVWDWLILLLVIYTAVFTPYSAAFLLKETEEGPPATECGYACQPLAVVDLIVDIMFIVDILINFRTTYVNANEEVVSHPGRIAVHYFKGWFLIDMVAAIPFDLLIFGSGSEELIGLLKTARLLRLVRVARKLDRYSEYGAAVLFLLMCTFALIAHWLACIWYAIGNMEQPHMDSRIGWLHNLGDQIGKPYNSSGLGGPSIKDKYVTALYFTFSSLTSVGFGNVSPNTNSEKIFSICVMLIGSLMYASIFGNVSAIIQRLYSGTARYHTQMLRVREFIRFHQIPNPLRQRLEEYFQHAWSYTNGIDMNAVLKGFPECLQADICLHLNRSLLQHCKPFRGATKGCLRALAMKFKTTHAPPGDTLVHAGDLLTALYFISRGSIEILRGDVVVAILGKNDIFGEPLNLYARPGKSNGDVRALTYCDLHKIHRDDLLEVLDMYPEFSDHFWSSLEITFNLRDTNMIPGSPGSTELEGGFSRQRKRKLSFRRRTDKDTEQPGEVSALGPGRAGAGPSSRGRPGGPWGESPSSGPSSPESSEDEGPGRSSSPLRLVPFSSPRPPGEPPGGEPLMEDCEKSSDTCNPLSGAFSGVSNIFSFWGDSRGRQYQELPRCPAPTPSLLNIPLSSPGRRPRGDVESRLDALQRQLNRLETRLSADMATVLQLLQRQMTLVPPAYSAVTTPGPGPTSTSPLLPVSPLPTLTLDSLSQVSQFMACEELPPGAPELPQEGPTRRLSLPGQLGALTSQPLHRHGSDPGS
Description: Displacement of [3H]dofetilide from human ERG

[14] = target: T1, 5-hydroxytryptamine receptor 1A; assay: biochemical
Description: Displacement of [3H]-8-OH-DPAT from human 5HT1A receptor expressed in HeLa cells

[15] = tested on: Mus musculus; assay: Induction of catalepsy in mouse at 10 mg/kg, po; type: organism-based; set-up: dose 10 mg/kg, route oral; settings: in vivo
[16] = tested on: Mus musculus; assay: Induction of catalepsy in mouse at 30 mg/kg, po; type: organism-based; set-up: dose 30 mg/kg, route oral; settings: in vivo
[17] = tested on: Rattus norvegicus; assay: Ex vivo D2 receptor occupancy in po dosed rat striatum assessed as inhibition [3H]-raclopride binding at 82 ng/ml plasma concentration; type: functional; set-up: scale not given: the % may be the effect or the level left
[18] = tested on: Rattus norvegicus; assay: Ex vivo D2 receptor occupancy in po dosed rat striatum assessed as inhibition [3H]-raclopride binding at 243 ng/ml plasma concentration; type: functional; set-up: scale not given: the % may be the effect or the level left
[19] = tested on: Rattus norvegicus; assay: Ex vivo D2 receptor occupancy in rat striatum assessed as inhibition [3H]-raclopride binding at 30 mg/kg, po; type: functional; set-up: scale not given: the % may be the effect or the level left

5-hydroxytryptamine receptor 2A, sequence (P28223 whole entry): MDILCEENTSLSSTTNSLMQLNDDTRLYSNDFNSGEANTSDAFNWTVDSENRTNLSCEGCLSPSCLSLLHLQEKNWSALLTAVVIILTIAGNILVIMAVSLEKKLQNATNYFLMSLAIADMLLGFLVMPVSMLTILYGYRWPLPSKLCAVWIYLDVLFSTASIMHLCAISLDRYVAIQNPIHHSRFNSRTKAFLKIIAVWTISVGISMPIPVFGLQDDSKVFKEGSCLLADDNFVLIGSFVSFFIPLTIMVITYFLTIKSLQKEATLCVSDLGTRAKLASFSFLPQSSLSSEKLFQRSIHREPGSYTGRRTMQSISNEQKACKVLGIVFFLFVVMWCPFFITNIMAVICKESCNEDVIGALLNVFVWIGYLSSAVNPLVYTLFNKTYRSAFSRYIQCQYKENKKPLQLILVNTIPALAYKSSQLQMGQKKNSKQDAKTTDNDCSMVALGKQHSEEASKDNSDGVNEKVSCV

Compound	Ki [1] [nM]	Ki [2] [nM]	Intrinsic activity [3] [%]	Intrinsic activity [4] [%]	Ki [5] [nM]	Ki [6] [nM]	Activity [7]	minimal effective dose [7] [mg/kg]	CLint scaled [8] [mL/min/kg]	Activity [9] [%]	Activity [10] [%]	Kp [11]	Activity [12] [%]	Ki [13] [nM]	Ki [14] [nM]	Activity [15]	Activity [16]	Activity [17] [%]	Activity [18] [%]	Activity [19] [%]
O=C1NCc2ccc(OCCCCN3CCN(c4cccc5ccccc45)CC3)cc21	4.95	2.22	66.7	43	16.5	445	Dose-dependent effect	1	23.7	80	94	2.49	55	1850	0.151					
O=C1NCc2ccc(OCCCCN3CCN(c4cccc5cccc(F)c45)CC3)cc21	1.83	0.951		60	26		Dose-dependent effect	1				1.81	53	2060	0.0504	Non-toxic	Non-toxic	78.5	92.3	99
